Here are results for two compounds from patent US20080255090A1, “Ceratamines A and B, and Analogues, Syntheses and Pharmaceutical Compositions Thereof” (THE UNIVERSITY OF BRITISH COLUMBIA, priority 2003, published 2008).

The test deals with mitotic arrest. The experiment in a line: cell-based ELICA assay that detects mitotic arrest (Roberge et al. 2000). The conditions noted are these: cell-based ELICA assay of Roberge et al. (2000) Cancer Res. 60:5052. From the text:
As part of a program to discover new antimitotic natural products, extracts of marine invertebrates are screened in a cell-based assay that detects mitotic arrest (Roberge, M. et al. (2000) Cancer Res. 60:5052). […] The compounds described below, their salts, prodrugs and pharmaceutical compositions thereof are all contemplated within the scope of this invention.
Methods suitable for assaying antimitotic activity of compounds of this invention or compounds used as precursors, may be based on any of a variety of known methodologies including microscopic examination of cells to determine if they are arrested in mitosis. Particularly useful methods employ antibodies specific for mitotic cells, such as the method described in the international patent application published under WO 99/15157 or the assays described in WO 01/38339 and in Roberge et al. (2000) Cancer Res. 60:5052. Assays will typically employ cells which regularly divide in culture (e.g. cancer cells). […]
Immunological methods useful for determination of mitotic cells in an assay include any method for determining antibody-antigen binding, including: immunocytochemistry (e.g. immunofluorescence), flow cytometry, immunoblotting, and ELISA, including those described in Vincent, I. et al. [supra]. High throughput testing of samples may be readily achieved by use of the ELISA or the ELICA assays described in WO 01/38339. […]

Values after ≈ are worked out from the molar mass of the structure shown.

Broadly, the IC50 is the concentration that gives 50% inhibition. As for `CNc1nc2ccn(C)c(=O)c(Cc3cc(Br)c(OC)c(Br)c3)c-2n1` [Heterocycle 1, ceratamine A], the IC50 (read-out: IC50, antimitotic activity in the cell-based ELICA assay) amounted to 10 µg/mL (≈ 21.4 µM).

For the compound ceratamine B [Heterocycle 2], the “IC50, antimitotic activity in the cell-based ELICA assay” value was 10 µg/mL.
